According to patent publication US7012098B2, “Inhibitors of inducible nitric oxide synthase for chemoprevention and treatment of cancers” (Pharmacia Corporation, priority 2001, dated 2006):
Counter-ions that a name gives are not always drawn.

How the values were obtained:
COX-1 = target: T1, COX-1 (Rattus norvegicus, UniProt Q63921); test: Colonic mucosal COX-1 activity after dietary treatment; assay type: in vivo, male F344 rats; conditions: 100 ppm in diet; AOM-treated rats, colonic mucosa; Mean ± SEM
T1 sequence (Q63921 27-602): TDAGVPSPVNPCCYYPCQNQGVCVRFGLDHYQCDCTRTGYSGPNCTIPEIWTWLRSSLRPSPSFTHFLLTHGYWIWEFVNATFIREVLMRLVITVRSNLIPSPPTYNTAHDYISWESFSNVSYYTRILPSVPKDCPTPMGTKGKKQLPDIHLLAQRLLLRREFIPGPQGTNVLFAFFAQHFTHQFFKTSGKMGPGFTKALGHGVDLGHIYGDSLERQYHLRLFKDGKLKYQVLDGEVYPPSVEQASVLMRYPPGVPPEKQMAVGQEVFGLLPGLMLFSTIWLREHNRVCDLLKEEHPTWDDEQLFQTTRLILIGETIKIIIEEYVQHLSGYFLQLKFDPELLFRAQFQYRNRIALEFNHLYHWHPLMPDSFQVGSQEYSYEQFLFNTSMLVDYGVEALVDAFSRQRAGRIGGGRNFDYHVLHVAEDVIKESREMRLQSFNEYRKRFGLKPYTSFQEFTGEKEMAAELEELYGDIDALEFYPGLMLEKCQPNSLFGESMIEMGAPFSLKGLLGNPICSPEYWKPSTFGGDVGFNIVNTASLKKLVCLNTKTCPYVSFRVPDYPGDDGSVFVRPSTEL
Method: (§1) For determining COX-2 activity, proteins were preincubated with 50 μM of aspirin to block the activity of COX-1. After incubation at 37° C. for 15 min, the reaction was terminated by adding 40 μl of 0.2 M HCl. The COX-mediated metabolites of arachidonic acid were extracted with ethyl acetate (3×0.5 ml). The combined extracts were evaporated to dryness under N2, redissolved in chloroform, and subjected to thin layer chromatography on precoated TLC plastic plates (silica G 60, 20×20 cm, layer thickness 150 μm). […] The metabolites of ^14C-AA corresponding to PGE2, PGF2α, PGD2, 6-Keto PGF1α, and TXB2 were detected by their comigration (Rf-values) with authentic standards. The area of each metabolite was determined in a Bioscan System 200 image scanning counter (Bioscan Inc., Washington, D.C.) equipped with β-detector.

COX-2 = target: T2, COX-2 (Rattus norvegicus, UniProt P35355); test: Colonic mucosal COX-2 activity after dietary treatment; assay type: in vivo, male F344 rats; conditions: 100 ppm in diet; AOM-treated rats, colonic mucosa; Mean ± SEM
T2 sequence (P35355 18-604): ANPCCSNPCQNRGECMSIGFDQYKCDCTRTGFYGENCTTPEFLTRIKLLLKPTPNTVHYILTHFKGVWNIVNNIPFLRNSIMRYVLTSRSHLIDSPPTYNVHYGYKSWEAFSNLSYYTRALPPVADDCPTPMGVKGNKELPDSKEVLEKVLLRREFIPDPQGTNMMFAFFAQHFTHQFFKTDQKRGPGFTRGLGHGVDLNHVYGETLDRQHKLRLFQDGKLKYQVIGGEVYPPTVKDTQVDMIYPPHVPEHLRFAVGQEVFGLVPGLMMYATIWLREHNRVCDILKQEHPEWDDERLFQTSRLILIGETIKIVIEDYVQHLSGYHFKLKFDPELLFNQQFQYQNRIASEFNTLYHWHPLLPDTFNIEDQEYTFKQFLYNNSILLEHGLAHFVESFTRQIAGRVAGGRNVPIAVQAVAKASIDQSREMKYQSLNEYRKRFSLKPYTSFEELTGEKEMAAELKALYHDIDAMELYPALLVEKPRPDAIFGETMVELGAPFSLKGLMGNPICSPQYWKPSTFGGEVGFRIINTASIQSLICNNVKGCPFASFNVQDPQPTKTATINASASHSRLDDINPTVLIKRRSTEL
Method: as §1

Structure (SMILES): CC(=N)NCCCC[C@H](N)C(=O)Nc1nnn[nH]1 [compound XI, 2S-amino-6-[(1-iminoethyl)amino]-N-(1H-tetrazol-5-yl)hexanamide, hydrate, dihydrochloride]
- COX-Activity, COX-1 (COX-1): 11.3 ± 1.4 pmoles [^14C]-AA metabolized/m
- COX-Activity, COX-2 (COX-2): 1.8 ± 0.3 pmoles [^14C]-AA metabolized/m
